According to patent publication US8673907B2, “Pharmaceutically acceptable salts of methyl (3-{ [[3-(6-amino- 2-butoxy-8-oxo-7,8-dihydro-9H-purin-9-yl) propyl] (3-morpholin-4-ylpropyl) amino] methyl }phenyl) acetate and their use in therapy” (AstraZeneca AB, priority 2007, dated 2014):

How the values were obtained:
Format in all cases: physicochemical
[1] = Measurement of fine particle fraction (FPF) with Next Generation Impactor and HPLC; details: for Delivered amount: 60 liters/min for 2 seconds; for FPF (% < 5 μm/delivered dose), Average over NGI's: average of NGI1 and NGI2
Method: Measurement of FPF, starting from substance as received, was carried out according to the following series of steps:
Doses of 1-2 mg were weighed manually (without scraping) into the cavities of a prototype inhaler (see below). Two experiments were run for each test substance and two doses were used in each experiment and, thus, in total, four doses of each test substance were used in the experiments. The samples were dried in nitrogen gas atmosphere overnight before conducting the experiments.
The Next Generation Impactor, NGI, was used for the fine particle assessment. […] Two NGI impactors were used, one per experiment.
A simple prototype inhaler was used for the tests, consisting of an L-shaped cylindrical channel, comprising a vertical component and a horizontal component. The prototype inhaler was fitted via an USP-inlet to the NGI impactor. The micronised powder was transferred through the vertical channel into the bend of the prototype inhaler, (i.e. the bend of the L-shaped channel).
Each dose of 1-2 mg of powder was drawn with an airflow of 60 liters/min for 2 seconds (measured at the entrance of the induction port), entraining the powder located in the bend, and the aerosol thereafter moved through the horizontal component of the channel, through a spiral mouthpiece and into the NGI impactor.
The withdrawal and collection of the drug powders was performed in an isolator (glove) box with a relative humidity level below 2%.
The FPF's, as defined in the pharmacopoeia references above, were calculated.

[2] = Particle size reduction (micronisation) in 2" Spiral Jet Mill; details: for Yield (micronisation): constant flow feed, venturi 5 bar, grind 1-2 bar
Method: Particle size reduction using a 2″ Spiral Jet Mill (SJM) was carried out on the following three test substances: the monohydrochloride salt according to Example 1 (invention salt), the dimaleate salt according to Example 3 (invention salt) and the free base compound, methyl (3-{[[3-(6-amino-2-butoxy-8-oxo-7,8-dihydro-9H-purin-9-yl)propyl](3-morpholin-4-ylpropyl)amino]methyl}phenyl)acetate (comparison compound).
A sieved batch of test substance was fed into the jet mill chamber, via a venturi feed system, by a vibratory feeder. Micronisation was achieved by particle collisions brought about by compressed gas (nitrogen) forced through angled nozzles in the jet mill chamber. Particles of different sizes develop different speeds and momentum and as the particle size is reduced the particles spiral towards the centre of the jet mill and exit via an exhaust into a collection bin. The process parameters that control the particle size, in addition to the inherent properties of the compound to be micronised, are the feed rate, grinding pressure and venturi pressure and these are summarised in Table I following.

[3] = Particle size measurement by laser diffraction (Malvern Scirocco) after micronisation; details: after jet milling; pressure 4 bar (comparison) or 1.5 bar (salts)
Method: Particle size reduction (micronisation) was performed in a jet mill in which pressurised gas was used to make the substance particles collide at high speed in order to effect particle size reduction. Particle size measurements were performed with laser diffraction using a Malvern Scirocco instrument.

SMILES: CCCCOc1nc(N)c2[nH]c(=O)n(CCCN(CCCN3CCOCC3)Cc3cccc(CC(=O)OC)c3)c2n1.Cl [Monohydrochloride, methyl (3-{[[3-(6-amino-2-butoxy-8-oxo-7,8-dihydro-9H-purin-9-yl)propyl](3-morpholin-4-ylpropyl)amino]methyl}phenyl)acetate monohydrochloride]
- Amount particles < 5 μm, extrapolated ([1]; NGI1): 393 µg
- Collected in stage 3-8 (<4.5 μm) ([1]; NGI1): 383 µg
- FPF (% < 5 μm/delivered dose) ([1]; NGI1): 31.3%
- Delivered amount ([1]; NGI1): 1257 µg
- Amount particles < 5 μm, extrapolated ([1]; NGI2): 402 µg
- Collected in stage 3-8 (<4.5 μm) ([1]; NGI2): 392 µg
- FPF (% < 5 μm/delivered dose) ([1]; NGI2): 40.6%
- Delivered amount ([1]; NGI2): 992 µg
- FPF (% < 5 μm/delivered dose), Average over NGI's [1]: 35.9%
- Micronisation behaviour (build-up/blocking of mill) [2]: readily micronised
- Yield (micronisation) [2]: 85%
- d(0.1) [3]: 0.9 μm
- d(0.5) [3]: 1.8 μm
- d(0.9) [3]: 3.5 μm

SMILES: CCCCOc1nc(N)c2[nH]c(=O)n(CCCN(CCCN3CCOCC3)Cc3cccc(CC(=O)OC)c3)c2n1 [Comparison compound, methyl (3-{[[3-(6-amino-2-butoxy-8-oxo-7,8-dihydro-9H-purin-9-yl)propyl](3-morpholin-4-ylpropyl)amino]methyl}phenyl)acetate, reference compound]
- Amount particles < 5 μm, extrapolated ([1]; NGI1): 139 µg
- Collected in stage 3-8 (<4.5 μm) ([1]; NGI1): 131 µg
- FPF (% < 5 μm/delivered dose) ([1]; NGI1): 19.3%
- Delivered amount ([1]; NGI1): 720 µg
- Amount particles < 5 μm, extrapolated ([1]; NGI2): 189 µg
- Collected in stage 3-8 (<4.5 μm) ([1]; NGI2): 178 µg
- FPF (% < 5 μm/delivered dose) ([1]; NGI2): 13.6%
- Delivered amount ([1]; NGI2): 1396 µg
- FPF (% < 5 μm/delivered dose), Average over NGI's [1]: 16.4%
- Micronisation behaviour (build-up/blocking of mill) [2]: the mill became plugged
- Yield (micronisation) [2]: 1.7%
- d(0.1) [3]: 0.6 μm
- d(0.5) [3]: 1.7 μm
- d(0.9) [3]: 4.1 μm

SMILES: Br.CCCCOc1nc(N)c2[nH]c(=O)n(CCCN(CCCN3CCOCC3)Cc3cccc(CC(=O)OC)c3)c2n1 [Monohydrobromide, methyl (3-{[[3-(6-amino-2-butoxy-8-oxo-7,8-dihydro-9H-purin-9-yl)propyl](3-morpholin-4-ylpropyl)amino]methyl}phenyl)acetate monohydrobromide]
- Amount particles < 5 μm, extrapolated ([1]; NGI1): 332 µg
- Collected in stage 3-8 (<4.5 μm) ([1]; NGI1): 319 µg
- FPF (% < 5 μm/delivered dose) ([1]; NGI1): 29.6%
- Delivered amount ([1]; NGI1): 1123 µg
- Amount particles < 5 μm, extrapolated ([1]; NGI2): 427 µg
- Collected in stage 3-8 (<4.5 μm) ([1]; NGI2): 414 µg
- FPF (% < 5 μm/delivered dose) ([1]; NGI2): 43.8%
- Delivered amount ([1]; NGI2): 975 µg
- FPF (% < 5 μm/delivered dose), Average over NGI's [1]: 36.7%
- d(0.1) [3]: 0.8 μm
- d(0.5) [3]: 1.9 μm
- d(0.9) [3]: 4.1 μm

SMILES: CCCCOc1nc(N)c2[nH]c(=O)n(CCCN(CCCN3CCOCC3)Cc3cccc(CC(=O)OC)c3)c2n1.O=C(O)/C=C\C(=O)O.O=C(O)/C=C\C(=O)O [Dimaleate salt, methyl (3-{[[3-(6-amino-2-butoxy-8-oxo-7,8-dihydro-9H-purin-9-yl)propyl](3-morpholin-4-ylpropyl)amino]methyl}phenyl)acetate dimaleate]
- Micronisation behaviour (build-up/blocking of mill) [2]: readily micronised
- Yield (micronisation) [2]: 48%
